This note sets out measurements from publication PMC11585928, “Screening the Global Health Priority Box against Plasmodium berghei liver stage parasites using an inexpensive luciferase detection protocol” (Malaria Journal, 2024).

Series [1] deals with P. berghei liver stage schizonts. Description: microbe, parasite or virus in culture. The series is classed as cell-based. Conditions: Plasmodium berghei, HepG2, 44 h, read-out: High Content Imaging (pEC50 ± SD) (converted). On the procedure:
(§1) HepG2 seeding (1.75 × 10^4 cells/well), salivary gland dissection, sporozoite quantification, and sporozoite dilution were performed as described above. To test the titration of sporozoite in dose–response format with MMV390048, 20 µL of a 25 sporozoite/μL solution in HepG2 media was added to columns 1–8 of 384-well plates (inoculum of 500 sporozoites/well), 20 μL of 50 sporozoites/μL was added into columns 9–16 (inoculum of 1000 sporozoites/well), and 20 μL of 100 sporozoites/μL was added into columns 17–24 (inoculum of 2000 sporozoites/well). To test legacy anti-malarials, two independent experiments were performed for each endpoint (FLAR or HCI), each with an independent production run of P. berghei sporozoites. […] Infected plates were spun for 5 min at 200 RCF and kept for 3 h at 37 °C and 5% CO2 prior to compound treatment.
(§2) Compound treatment was performed as previously described. Dose–response source plates containing 5 μL of 1000 × test compounds in a serial dilution in DMSO were prepared in low volume 384-well plates using a Biomek 4000 (Beckman Coulter). Assay plates were treated by transferring 40 nL from screening or dose–response source plates using a pin tool (V&P Scientific) affixed to a Biomek NXp, resulting in a final test concentration of 1 × in media.
After 44 h, dose–response plates designated for the FLAR endpoint underwent the freeze/thaw lysis method before detection with 1 × FLAR completed with 1 × D-luciferin and ATP endpoint described above. Plates designated for the HCI endpoint were fixed with 4% paraformaldehyde (Thermo Scientific, cat 043368.9 M) in PBS for 20 min. Following fixation, the plate was washed twice by adding and then dumping 20 µL of PBS/well. Plates were then stained with 50 ng/mL of mouse anti-Plasmodium glyceraldehyde 3-phosphate dehydrogenase (GAPDH) (European Malaria Reagent Repository, cat 13.3) diluted in a 0.3% Triton X and 1% BSA permeabilization and blocking stain buffer overnight at 4 °C. Following three washes with PBS, plates were stained with 2 µg/mL of goat anti-mouse AlexaFluor 488 (Invitrogen, cat A11001) diluted in stain buffer and again incubated overnight at 4 °C. Following three washes with PBS, plates were counterstained with 10 µg/mL Hoechst 33342 (Invitrogen, cat H21492) for 30 min before two washes. Plates were imaged on an ImageXpress Micro Confocal high content system (Molecular Devices). Raw values (either parasite growth area for HCI or Relative Light Units (RLU) for FLAR) were normalized to the positive (MMV390048) or negative (DMSO) controls using the equation: %Inhibition=100×RawData-AverageNegativeControl/AveragePositiveControl-AverageNegativeControl and curve fitting was performed with CDD Vault using the Levenberg–Marquardt algorithm. Potency data from all plates were collected, visualized, and analysed using GraphPad Prism (Version 10.0.3). Potency values for legacy anti-malarials obtained from our FLAR endpoint were compared to those previously reported from a 1536-well plate format using a Bright-Glo™ luciferase detection protocol.

Series [2] concerns luciferase-expressing P. berghei liver stage schizonts. Description: P. berghei liver stage dose-response assay in HepG2, FLAR luciferase endpoint (legacy anti-malarials). The format is cell-based. Particulars: Plasmodium berghei, HepG2, 44 h, read-out: FLAR (pEC50 ± SD) (converted). How it is done: All stock reagents were stored at 4 °C, except D-luciferin, ATP, and DTT which were aliquoted and stored at − 20 °C. Tricine, MgSO4, and MgCO3 stocks were all adjusted to have a pH of 7.8.
as §1, with “To” for “HepG2 seeding (1.75 × 10^4 cells/well), salivary gland dissection, sporozoite quantification, and sporozoite dilution were performed as described above. To”
as §2
After 44 h, dose–response plates designated for the FLAR endpoint underwent the freeze/thaw lysis method before detection with 1 × FLAR completed with 1 × D-luciferin and ATP endpoint described above. […] Following fixation, the plate was washed twice by adding and then dumping 20 µL of PBS/well. […] Plates were imaged on an ImageXpress Micro Confocal high content system (Molecular Devices). Raw values (either parasite growth area for HCI or Relative Light Units (RLU) for FLAR) were normalized to the positive (MMV390048) or negative (DMSO) controls using the equation: %Inhibition=100×RawData-AverageNegativeControl/AveragePositiveControl-AverageNegativeControl and curve fitting was performed with CDD Vault using the Levenberg–Marquardt algorithm. Potency data from all plates were collected, visualized, and analysed using GraphPad Prism (Version 10.0.3). Potency values for legacy anti-malarials obtained from our FLAR endpoint were compared to those previously reported from a 1536-well plate format using a Bright-Glo™ luciferase detection protocol.

A further series relates to HepG2 cells. Description: HepG2 cytotoxicity assay in galactose media, 72 h, hepatic nuclei count by HCI. The format is cell-based, Homo sapiens. On the procedure:
To assess the general cytotoxicity of GHPB compounds, HepG2 cells were cultured in media containing galactose instead of glucose to avoid false negatives due to the Crabtree effect. Following propagation of HepG2 in T-75 flasks with glucose-containing media as above, media was aspirated, the cell monolayer was washed with PBS, and then cells were trypsinized as above. Released cells were then resuspended in media containing glucose-free DMEM (Gibco, cat 11,966–025) supplemented with 10% FBS (Corning, cat 35–016-CV), 10 mM galactose (Sigma, cat G5388), 1 mM sodium pyruvate (Corning, cat 25–000-CI), 1 × penicillin–streptomycin-neomycin mix (Gibco, cat 15,640–055), and 2 mM L-glutamine (Gibco, cat 25,030–081). The cell density was calculated using trypan blue exclusion on a haemocytometer, diluted to 50 cells/µL, and 40 µL of cells were seeded into collagen-coated 384-well plates (Greiner Bio-One, cat 781,956) using a Biomek NXp (Beckman Coulter), resulting in 2 × 10^3 cells/well. The day after seeding, plates were treated with a pin tool as above and cultured for 72 h. Plates were then fixed with 4% paraformaldehyde, stained with 10 µg/mL Hoechst 33,342, and imaged on an ImageXpress Micro Confocal. Hepatic nuclei were quantified using MetaXpress (Molecular Devices) image analysis software. Both P. berghei liver schizont and HepG2 cytotoxicity data were loaded into CDD Vault for normalization and hit selection as described above. A total of 35 compounds were identified for resupply of fresh powder for confirmation in dose–response assays. […] Powders were diluted to 50 mM in DMSO and plated in 1000 × source plates as described above. […] Separately, two independent runs of the HepG2 cultured in galactose, assayed as described above, were used to assess the cytotoxicity potency and selectivity indices for these compounds. […] Receiver-operator characteristic (ROC) curves were generated using Graphpad Prism and area under the curve (AUC) was calculated using the Wilson/Brown method for both P. berghei liver schizont activity and HepG2 cytotoxicity.

Take `c1cc([C@H]2CC[C@]3(CC2)OO[C@]2(O3)C3CC4CC(C3)CC2C4)ccc1OCCN1CCOCC1` [Artefenomel (OZ439), Artefenomel]: the EC50 in series [1] was greater than 1230 nM; in series [2], greater than 28800 nM.

Turning to `CO[C@H]1O[C@@H]2O[C@@]3(C)CC[C@H]4[C@H](C)CC[C@@H]([C@H]1C)[C@@]24OO3` [Artemether], the EC50 in series [1] is greater than 37200 nM; in series [2] it was greater than 1070 nM.

As for `C[C@@H]1CC[C@H]2[C@@H](C)C(=O)O[C@@H]3O[C@@]4(C)CC[C@@H]1[C@]32OO4` [Artemisinin], the EC50 in series [1] and in series [2] was greater than 50100 nM in each case.

On to `C[C@H]1[C@@H](O)O[C@@H]2O[C@@]3(C)CC[C@H]4[C@H](C)CC[C@@H]1[C@@]24OO3` [Artenimol (DHA), dihydroartemisinin], for which the EC50 in series [1] and in series [2] was greater than 10000 nM throughout.

As for `CC(C)(N)CNC(=O)C[C@H]1CC[C@]2(CC1)OO[C@]1(O2)C2CC3CC(C2)CC1C3` [Arterolane (OZ277), Arterolane], the EC50 in series [1] was greater than 3020 nM; in series [2], greater than 10000 nM.

`C[C@H]1[C@H](OC(=O)CCC(=O)O)O[C@@H]2O[C@@]3(C)CC[C@H]4[C@H](C)CC[C@@H]1[C@@]24OO3` [Artesunate]: the EC50 in series [1] and in series [2] was greater than 16600 nM each time.

On to `O=C1C(O)=C([C@H]2CC[C@H](c3ccc(Cl)cc3)CC2)C(=O)c2ccccc21` [Atovaquone], for which the EC50 is 17 nM in series [1] and 21.4 nM in series [2].

On to `CC[C@H]1OC(=O)[C@H](C)[C@@H](O[C@H]2C[C@@](C)(OC)[C@@H](O)[C@H](C)O2)[C@H](C)[C@@H](O[C@@H]2O[C@H](C)C[C@H](N(C)C)[C@H]2O)[C@](C)(O)C[C@@H](C)CN(C)[C@H](C)[C@@H](O)[C@]1(C)O` [Azithromycin], for which the EC50 in series [1] and in series [2] was greater than 10000 nM each time.

Turning to `CCN(CC)CCCC(C)Nc1ccnc2cc(Cl)ccc12` (centres unmarked) [Chloroquine], the EC50 in series [1] and in series [2] was greater than 10000 nM each time.

As for `C[C@H]1Cc2c([nH]c3cc(Cl)c(F)cc23)[C@@]2(N1)C(=O)Nc1ccc(Cl)cc12` [Cipargamin], the EC50 in series [1] is 9.55 nM; in series [2], 10.2 nM.

On to `Cc1cc(Nc2ccc(S(F)(F)(F)(F)F)cc2)n2nc(C(C)(F)F)nc2n1` [DSM265], for which the EC50 was 11.2 nM in series [1] and 16.6 nM in series [2].

Regarding `CCCCN(CCCC)CC(O)c1cc(Cl)cc2c1-c1ccc(Cl)cc1/C2=C/c1ccc(Cl)cc1` (centres unmarked) [Lumefantrine], the EC50 in series [1] and in series [2] was greater than 5750 nM each time.

Take `CCOc1ccccc1NC(=O)Cn1c(=O)n(Cc2ccccc2)c(=O)c2c(C)c(C(=O)N(C)C)sc21` [MMV006430]: in the series with HepG2 cells, the “HepG2 Cytotoxicity (pEC50 ± SD)” value is 4.94 ± 0.06.

With `CS(=O)(=O)c1ccc(-c2cnc(N)c(-c3ccc(C(F)(F)F)nc3)c2)cc1` [MMV390048], the figures for the EC50 in series [1] and in series [2] were 63.1 nM and 64.6 nM, respectively.

For the molecule `CN(C)c1ccc2nc3ccc(=[N+](C)C)cc-3sc2c1` [Methylene Blue], the EC50 in series [1] is 295 nM; in series [2], 219 nM.

In the case of `Clc1ccc2c(N3CCN(CCCN4CCN(c5ccnc6cc(Cl)ccc56)CC4)CC3)ccnc2c1` [Piperaquine], the EC50 in series [1] is greater than 5750 nM; in series [2], greater than 5250 nM.

Turning to `COc1cc(NC(C)CCCN)c2ncccc2c1` (centres unmarked) [Primaquine], the results for the EC50 in series [1] and in series [2] were greater than 10000 nM and greater than 5370 nM, respectively.

Consider `CCc1nc(N)nc(N)c1-c1ccc(Cl)cc1` [Pyrimethamine], for which the results for the EC50 in series [1] and in series [2] were 19.5 nM and 33.9 nM, respectively.

With `COc1ncnc(NS(=O)(=O)c2ccc(N)cc2)c1OC` [Sulfadoxine], the EC50 in series [1] and in series [2] was greater than 10000 nM throughout.

As to `COc1cc(C)c2c(Oc3cccc(C(F)(F)F)c3)c(OC)cc(NC(C)CCCN)c2n1` (centres unmarked) [Tafenoquine], the EC50 was greater than 3390 nM in series [1] and greater than 1580 nM in series [2].

With `COc1cc(Cc2cnc(N)nc2N)cc(OC)c1OC` [Trimethoprim], the EC50 in series [1] was 1740 nM; in series [2], 1290 nM.
